Laboratory results published in patent US20230106032A1, “IMIDAZOTRIAZINES ACTING ON CANCER VIA INHIBITION OF CDK12” (Bayer Aktiengesellschaft, priority 2020, published 2023).

Legend:
CDK2/CycE = target: T1, CDK2/CycE (Homo sapiens, UniProt P24941); assay: CDK2/CycE kinase assay (TR-FRET, 2 mM ATP); format: biochemical; settings: read-out: CDK2/CyclinE, 2 mM ATP (high ATP) IC50-[mol/l] (median)
T1 construct: purchased ProQinase GmbH (Freiburg, Germany); host or cells: insect cells (Sf9)
Excerpt: CDK2/CycE-inhibitory activity of compounds of the present invention was quantified employing the CDK2/CycE TR-FRET assay as described in the following paragraphs.
Recombinant fusion proteins of GST and human CDK2 and of GST and human CycE, expressed in insect cells (Sf9) and purified by Glutathion-Sepharose affinity chromatography, were purchase from ProQinase GmbH (Freiburg, Germany). As substrate for the kinase reaction biotinylated peptide biotin-Ttds-YISPLKSPYKISEG (C-terminus in amid form) was used which can be purchased e.g. form the company JERINI peptide technologies (Berlin, Germany).
For the assay 50 nanoL of a 100 fold concentrated solution of the test compound in DMSO was pipetted into a black low volume 384 well microtiter plate or a black 1536 well microtiter plate (both Greiner Bio-One, Frickenhausen, Germany), 2 microL of a solution of CDK2/CycE in aqueous assay buffer [50 millimol/L Tris/HCl pH 8.0, 10 millimol/L MgCl2, 1.0 millimol/L dithiothreitol, 0.1 millimol/L sodium ortho-vanadate, 0.01% (v/v) Nonidet-P40 (Sigma)] were added and the mixture was incubated for 15 min at 22° C. to allow pre-binding of the test compounds to the enzyme before the start of the kinase reaction. Then the kinase reaction was started by the addition of 3 microL of a solution of adenosine-tri-phosphate (ATP, 3.33 millimol/L=> final conc. in the 5 microL assay volume is 2 millimol/L) and substrate (1.25 micromol/L=> final conc. in the 5 microL assay volume is 0.75 micromol/L) in assay buffer and the resulting mixture was incubated for a reaction time of 25 min at 22° C. The concentration of CDK2/CycE was adjusted depending of the activity of the enzyme lot and was chosen appropriate to have the assay in the linear range, typical concentrations were in the range of 10 ng/ml. The reaction was stopped by the addition of 3 microL of a solution of TR-FRET detection reagents (0.333 micromol/L streptavidine-XL665 [Cisbio Bioassays, Codolet, France] and 1.67 nanomol/L anti-RB(pSer807/pSer8l 1)-antibody from BD Pharmingen [#558389] and 2 nanomol/L LANCE EU-W1024 labeled anti-mouse IgG antibody [Perkin-Elmer, product no. AD0077, as an alternative a Terbium-cryptate-labeled anti-mouse IgG antibody from Cisbio Bioassays can be used]) in an aqueous EDTA-solution (167 millimol/L EDTA, 0.2% (w/v) bovine serum albumin in 100 millimol/L HEPES pH 7.5).
The resulting mixture was incubated 1 h at 22° C. to allow the formation of complex between the phosphorylated biotinylated peptide and the detection reagents. Subsequently the amount of phosphorylated substrate was evaluated by measurement of the resonance energy transfer from the Eu-chelate to the streptavidine-XL. Therefore, the fluorescence emissions at 620 nm and 665 nm after excitation at 350 nm was measured in a TR-FRET reader, e.g. a Pherastar (BMG Labtechnologies, Offenburg, Germany) or a Viewlux (Perkin-Elmer). The ratio of the emissions at 665 nm and at […] was taken as the measure for the amount of phosphorylated substrate. The data were normalised (enzyme reaction without inhibitor=0% inhibition, all other assay components but no enzyme=100% inhibition).

[1] = system: MDA-MB-231 human breast cancer cells; assay: Proliferation assay MDA-MB-231 (crystal violet); format: cell-based; settings: 96 h, MDA-MB-231 cells, 4 days, read-out: Prolif-MDA MB231 IC50-[mol/l] (median)
Procedure: (§1) Human tumour cells were originally obtained from the American Type Culture Collection (ATCC), or from the Deutsche Sammlung von Mikroorganismen und Zellkulturen (DSMZ, German Collection of Microorganisms and Cell Cultures). Cultivated tumour cells (CAL-120, human breast adenocarcinoma cells, DSMZ ACC-459; MDA-MB-231, human breast cancer cells, ATCC HTB-26) were plated at a density of 4,000 cells/well in a 96-well multititer plate in 200 microL of their respective growth medium supplemented 10% fetal calf serum. After 24 hours, the cells of one plate (zero-point plate) were stained with crystal violet (see below), while the medium of the other plates was supplemented with the test substances in various concentrations (0 micromol/L, as well as in the range of 0.01-10 micromol/L; the final concentration of the solvent dimethyl sulfoxide was adjusted to 0.1%) using a Tecan HP D300 Digital Dispenser. The cells were incubated for 4 days in the presence of test substances. Cell proliferation was determined by staining the cells with crystal violet: the cells were fixed by adding 20 microL/measuring point of an 11% glutaric aldehyde solution for 15 minutes at room temperature. After three washing cycles of the fixed cells with water, the plates were dried at room temperature. The cells were stained by adding 100 microL/measuring point of a 0.1% crystal violet solution (pH 3.0). After three washing cycles of the stained cells with water, the plates were dried at room temperature. The dye was dissolved by adding 100 microL/measuring point of a 10% acetic acid solution. The extinction was determined by photometry at a wavelength of 595 nm. The change of cell number, in percent, was calculated by normalization of the measured values to the extinction values of the zero-point plate (=0%) and the extinction of the untreated (0 μM) cells (=100%). The IC50 values (inhibitory concentration at 50% of maximal effect) were determined by means of a 4 parameter fit.

[2] = system: CAL-120 human breast adenocarcinoma cells; assay: Proliferation assay CAL-120 (crystal violet); format: cell-based; settings: 96 h, CAL-120 cells, 4 days, read-out: Prolif-CAL-120_ IC50-[mol/l] (median)
Procedure: as §1

CYCLIN K = CYCLIN K nuclear protein level: immunofluorescence/high content analysis in CAL-120 cells; format: cell-based, human; settings: 24 h, nuclear CCNK staining, read-out: CYCLIN K degradation IF, DC50-[mol/l] (median)
Procedure: In the context of the present invention, the term “DC50 Cyclin K” refers to the DC50 values obtained according to the assay described in this section (7) herein below, i.e. the DC50 values for the degradation of Cyclin K.
CAL-120 human breast cancer cells (DSMZ ACC 459) are seeded in 1536-well microtiter plates (800 cells per well) containing 50 nanoL of compounds in Dose-Response. Control wells received DMSO or Reference Example 1. Plates are then incubated for 24 h at 37° C. in an humidified incubator and fixed with 4% PFA for 10 min. Then immunofluorescence (IF) against CYCLIN K (ThermoFisher Scientific CCNK Antibody #PA5-85020, rabbit, 1:200 dilution) is performed using standard IF protocols. Cells are then stained with Hoechst 33342 (Life Technologies, H-1399, 0.1 microg/ml) and imaged on an automated confocal microscopy system (e.g. Perkin Elmer Opera Phenix). Nuclear and cytoplasmic intensity as well as the nuclear/cytoplasmic intensity ratio is determined by automated image analysis using custom generated scripts (MetaXpress). Data is then transferred to Genedata Screener software, normalized to DMSO and control and DC50 values (degrading concentration to achieve 50% reduction of nuclear CCNK staining intensity relative to controls) are reported.

Structure (SMILES)	IC50 (CDK2/CycE) [nM]	IC50 [1] [nM]	IC50 [2] [nM]	DC50 (CYCLIN K) [nM]
C[C@@H]1CN(c2nc(NCc3nc4ccccc4[nH]3)c3ncc(Br)n3n2)C[C@H](C)N1 [Example 9, N-[(1H-benzimidazol-2-yl)methyl]-7-bromo-2-[rel-(3R,5S)-3,5-dimethylpiperazin-1-yl]imidazo[2,1-f][1,2,4]triazin-4-amine]	> 20000	9.6	2.04	0.111
Fc1ccc2[nH]c(CNc3nc(N4CCOCC4)nn4c(Br)cnc34)nc2c1 [Example 20, 7-bromo-N-[(5-fluoro-1H-benzimidazol-2-yl)methyl]-2-(morpholin-4-yl)imidazo[2,1-f][1,2,4]triazin-4-amine]	17200	3.73	10.7	0.0659
COc1cccc2[nH]c(CNc3nc(N4CCN(C)CC4)nn4c(Br)cnc34)nc12.O=CO [Example 16, 7-bromo-N-[(4-methoxy-1H-benzimidazol-2-yl)methyl]-2-(4-methylpiperazin-1-yl)imidazo[2,1-f][1,2,4]triazin-4-amine Formate (1/1)]	12600	13.1	5.89	0.954
C[C@@H]1CN(c2nc(NCc3nc4ccccc4[nH]3)c3ncc(C(F)(F)F)n3n2)C[C@H](C)N1.O=CO [Example 24, N-[(1H-benzimidazol-2-yl)methyl]-2-[rel-(3R,5S)-3,5-dimethylpiperazin-1-yl]-7-(trifluoromethyl)imidazo[2,1-f][1,2,4]triazin-4-amine Formate (1/1)]	> 20000	1.52	1.2	0.0613
CN1CCN(c2nc(NCc3nc4c(F)c(F)ccc4[nH]3)c3ncc(C(F)(F)F)n3n2)CC1 [Example 28, N-[(4,5-difluoro-1H-benzimidazol-2-yl)methyl]-2-(4-methylpiperazin-1-yl)-7-(trifluoromethyl)imidazo[2,1-f][1,2,4]triazin-4-amine]	> 20000	2.83	1.99	0.363
